Consider 44 molecules from ChEMBL document CHEMBL3045621, “Synthesis and Structure-activity Relationships of Herbicidal Thiophene Sulfonylurea Compounds” (J Pestic Sci, 1997).

Data set [1] has as its system Oryza sativa. Nature of the data set: Toxicity in two leaf stage of Oryza sativa var. Nihonbare (rice) assessed as dose required to selectivity to Oryza sativa. Type of data set: organism-based. The following applies: in vivo.
For data set [2], the system named is Sagittaria pygmaea. Kind of data set: Herbicidal activity against Sagittaria pygmaea assessed as dose required to cause sufficient herbicidal activity after 5 to 7 days. It counts as functional.
Data set [3] concerns Echinochloa oryzicola. Nature of the data set: Herbicidal activity against Echinochloa oryzicola assessed as dose required to cause sufficient herbicidal activity. It counts as functional.
Data set [4] concerns Schoenoplectiella juncoides. Nature of the data set: Herbicidal activity against Schoenoplectiella juncoides assessed as dose required to cause sufficient herbicidal activity after 5 to 7 days. It counts as functional.

SMILES strings stand for the structures.

As to `COc1nc(NC(=O)NS(=O)(=O)c2csnc2COCCF)nc(OC)n1`, the MED in data set [1] is on record as above 0.313 g/acre; in data set [2] it was 0.313 g/acre; in data set [3] it was 5 g/acre; in data set [4], 1.25 g/acre.

Consider `COc1cc(OC)nc(NC(=O)NS(=O)(=O)c2sccc2C[N+](=O)[O-])n1`, for which the MED in data set [1] is reported as 0.625 g/acre.

`COc1nc(NC(=O)NS(=O)(=O)c2ccoc2COCCF)nc(OC)n1`: the MED was 0.313 g/acre in data set [1], 0.156 g/acre in data set [2], 1.25 g/acre in data set [3] and 0.625 g/acre in data set [4].

In the case of `COc1nc(NC(=O)NS(=O)(=O)c2c(COCCF)cnn2C)nc(OC)n1`, the MED was 1.25 g/acre in data set [1], 0.625 g/acre in data set [3] and 0.313 g/acre in data set [4].

With `COc1nc(NC(=O)NS(=O)(=O)c2scnc2COCCF)nc(OC)n1`, the MED in data set [1], in data set [2], in data set [3] and in data set [4] was 2.5 g/acre throughout.

For `COc1nc(NC(=O)NS(=O)(=O)c2snc(C)c2COCCF)nc(OC)n1`, the MED in data set [1] was 2.5 g/acre; in data set [2], 1.25 g/acre; in data set [3], 1.25 g/acre; in data set [4], 1.25 g/acre.

As to `COc1nc(NC(=O)NS(=O)(=O)c2ccccc2COCCF)nc(OC)n1`, the MED was 2.5 g/acre in data set [1], 10 g/acre in data set [2], 40 g/acre in data set [3] and 40 g/acre in data set [4].

Consider `COc1nc(NC(=O)NS(=O)(=O)c2ccc3ccccc3c2COCCF)nc(OC)n1`, for which the MED in data set [1], in data set [2], in data set [3] and in data set [4] was below 2.5 g/acre throughout.

As for `COc1nc(NC(=O)NS(=O)(=O)c2sc3ccccc3c2COCCF)nc(OC)n1`, the MED in data set [1], in data set [2], in data set [3] and in data set [4] was below 2.5 g/acre in each case.

Turning to `COc1nc(NC(=O)NS(=O)(=O)Cc2sccc2COCCF)nc(OC)n1`, the MED is listed as below 2.5 g/acre in data set [1], 20 g/acre in data set [2], 80 g/acre in data set [3] and 20 g/acre in data set [4].

On to `COc1cc(OC)nc(NC(=O)NS(=O)(=O)c2sccc2COCC(F)F)n1`, for which the MED is on record as 0.312 g/acre in data set [1], 0.0391 g/acre in data set [2], 1.25 g/acre in data set [3] and 0.0781 g/acre in data set [4].

For `COc1cc(OC)nc(NC(=O)NS(=O)(=O)c2sccc2COCCF)n1`, the MED worked out at 0.0781 g/acre in data set [1], 0.0391 g/acre in data set [2], 0.313 g/acre in data set [3] and 0.0391 g/acre in data set [4].

In the case of `COc1cc(OC)nc(NC(=O)NS(=O)(=O)c2sccc2COCC(F)(F)Cl)n1`, the MED in data set [1] came out at 1.25 g/acre; in data set [3], 5 g/acre; in data set [4] it was 2.5 g/acre.

For `COc1cc(OC)nc(NC(=O)NS(=O)(=O)c2ccsc2COCCF)n1`, the results for the MED in data set [1] and in data set [4] were 0.313 g/acre and 0.0781 g/acre, respectively.

With `COc1cc(OC)nc(NC(=O)NS(=O)(=O)c2cscc2COCCF)n1`, the MED in data set [1] worked out at 0.625 g/acre; in data set [2] it was 0.0781 g/acre; in data set [4] it was 0.156 g/acre.

Take `COc1cc(C)nc(NC(=O)NS(=O)(=O)c2sccc2COCCF)n1`: the MED in data set [1] was 0.156 g/acre; in data set [2], 0.0391 g/acre; in data set [3] it was 0.0195 g/acre; in data set [4] it was 0.0391 g/acre.

`Cc1cc(C)nc(NC(=O)NS(=O)(=O)c2sccc2COCCF)n1`: the MED in data set [1] worked out at 0.156 g/acre.

With `COc1cc(Cl)nc(NC(=O)NS(=O)(=O)c2sccc2COCCF)n1`, the MED in data set [1] was found to be 0.625 g/acre; in data set [2], 0.313 g/acre; in data set [3] it was 0.156 g/acre; in data set [4] it was 0.156 g/acre.

With `COc1cc(OCC(F)(F)F)nc(NC(=O)NS(=O)(=O)c2sccc2COCCF)n1`, the MED in data set [1] amounted to 5 g/acre; in data set [2], 2.5 g/acre; in data set [3] it was 20 g/acre; in data set [4] it was 10 g/acre.

For `O=C(Nc1nc(OC(F)F)cc(OC(F)F)n1)NS(=O)(=O)c1sccc1COCCF`, the MED in data set [1], in data set [2], in data set [3] and in data set [4] was 5 g/acre throughout.

For `COc1nc(NC(=O)NS(=O)(=O)c2sccc2COCCF)nc(OC)n1`, the figures for the MED in data set [1] and in data set [3] were 0.313 g/acre and 5 g/acre, respectively.

Take `COc1nc(C)nc(NC(=O)NS(=O)(=O)c2sccc2COCCF)n1`: the MED in data set [1] is reported as 0.0781 g/acre; in data set [2], 0.625 g/acre; in data set [3], 0.313 g/acre; in data set [4], 0.313 g/acre.

In the case of `C#CCOCc1ccsc1S(=O)(=O)NC(=O)Nc1nc(OC)cc(OC)n1`, the MED in data set [1] is 0.156 g/acre; in data set [2], 0.0391 g/acre; in data set [3], 0.625 g/acre; in data set [4], 0.0781 g/acre.

For the molecule `COCCOCc1ccsc1S(=O)(=O)NC(=O)Nc1nc(OC)cc(OC)n1`, the MED in data set [1] turned out to be 0.156 g/acre; in data set [2], 0.313 g/acre; in data set [4], 0.313 g/acre.

For the molecule `COc1cc(OC)nc(NC(=O)NS(=O)(=O)c2sccc2COCCCl)n1`, the results for the MED in data set [1], in data set [2] and in data set [4] were 0.625 g/acre, 0.156 g/acre and 0.156 g/acre, respectively.

Turning to `COc1cc(OC)nc(NC(=O)NS(=O)(=O)c2sccc2COCCCCl)n1`, the MED worked out at 0.313 g/acre in data set [1] and 1.25 g/acre in data set [3].

Turning to `COc1cc(OC)nc(NC(=O)NS(=O)(=O)c2sccc2COCC(Cl)(Cl)Cl)n1`, the MED in data set [1] amounted to 1.25 g/acre; in data set [2], 2.5 g/acre; in data set [3] it was 5 g/acre; in data set [4] it was 2.5 g/acre.

Consider `COc1cc(OC)nc(NC(=O)NS(=O)(=O)c2sccc2COCC(F)(F)F)n1`, for which the MED in data set [1] was found to be 1.25 g/acre; in data set [2] it was 0.156 g/acre; in data set [3], 2.5 g/acre; in data set [4] it was 0.156 g/acre.

For `COc1cc(OC)nc(NC(=O)NS(=O)(=O)c2sccc2COCC(F)(F)C(F)(F)F)n1`, the MED in data set [1] came to 0.625 g/acre; in data set [2], 2.5 g/acre; in data set [3], 5 g/acre; in data set [4], 1.25 g/acre.

With `COc1cc(OC)nc(NC(=O)NS(=O)(=O)c2sccc2COCC(F)(F)C(F)(F)C(F)(F)F)n1`, the MED in data set [1] worked out at 0.625 g/acre; in data set [2], 10 g/acre; in data set [3] it was 10 g/acre; in data set [4], 20 g/acre.

Turning to `COc1cc(OC)nc(NC(=O)NS(=O)(=O)c2sccc2COC(C)C(F)(F)F)n1` (stereo not given), the MED in data set [1] turned out to be 1.25 g/acre; in data set [3], 5 g/acre; in data set [4], 2.5 g/acre.

Take `COc1cc(OC)nc(NC(=O)NS(=O)(=O)c2sccc2COC(C)(C)C(F)(F)F)n1`: the MED in data set [1] is 2.5 g/acre; in data set [2], 2.5 g/acre; in data set [3], 20 g/acre; in data set [4], 1.25 g/acre.

Regarding `COc1cc(OC)nc(NC(=O)NS(=O)(=O)c2sccc2COC(CF)CF)n1`, the results for the MED in data set [1], in data set [2] and in data set [3] were 0.625 g/acre, 0.313 g/acre and 1.25 g/acre, respectively.

`COc1cc(OC)nc(NC(=O)NS(=O)(=O)c2sccc2COCCCF)n1`: the MED turned out to be 0.625 g/acre in data set [1], 0.156 g/acre in data set [2], 0.313 g/acre in data set [3] and 0.313 g/acre in data set [4].

With `COc1cc(OC)nc(NC(=O)NS(=O)(=O)c2sccc2CN(C)C)n1`, the MED in data set [2] came to 10 g/acre; in data set [3], 20 g/acre; in data set [4] it was 10 g/acre.

As for `CCN(CC)Cc1ccsc1S(=O)(=O)NC(=O)Nc1nc(OC)cc(OC)n1`, the MED in data set [1] was 0.625 g/acre; in data set [3], 5 g/acre.

On to `COc1cc(OC)nc(NC(=O)NS(=O)(=O)c2sccc2Cn2cccn2)n1`, for which the MED in data set [1] was determined as 0.625 g/acre; in data set [3], 5 g/acre; in data set [4], 1.25 g/acre.

For the molecule `C=CCOCc1ccsc1S(=O)(=O)NC(=O)Nc1nc(OC)cc(OC)n1`, the MED in data set [1] stood at 0.313 g/acre; in data set [2], 0.156 g/acre; in data set [3] it was 0.625 g/acre; in data set [4] it was 0.156 g/acre.

For `COCc1ccsc1S(=O)(=O)NC(=O)Nc1nc(OC)cc(OC)n1`, the MED in data set [1] was found to be 0.0781 g/acre; in data set [2], 0.0195 g/acre; in data set [4] it was 0.0391 g/acre.

Turning to `COc1cc(OC)nc(NC(=O)NS(=O)(=O)c2sccc2CC#N)n1`, the figures for the MED in data set [1], in data set [3] and in data set [4] were 0.0391 g/acre, 0.625 g/acre and 0.156 g/acre, respectively.

As to `COc1cc(OC)nc(NC(=O)NS(=O)(=O)c2sccc2CSC)n1`, the MED in data set [1] turned out to be 0.156 g/acre; in data set [2], 0.0195 g/acre; in data set [3], 0.313 g/acre.

Consider `CNC(=O)Cc1ccsc1S(=O)(=O)NC(=O)Nc1nc(OC)cc(OC)n1`, for which the MED in data set [1] is given as 1.25 g/acre; in data set [2] it was 0.313 g/acre; in data set [4], 0.625 g/acre.

Take `COc1cc(OC)nc(NC(=O)NS(=O)(=O)c2sccc2COCCO)n1`: the values for the MED in data set [1], in data set [3] and in data set [4] were 0.313 g/acre, 0.625 g/acre and 0.625 g/acre, respectively.

For the molecule `CCOC(=O)COCc1ccsc1S(=O)(=O)NC(=O)Nc1nc(OC)cc(OC)n1`, in data set [1], the MED is given as 1.25 g/acre.
